Measured values published in paper PMC5025041 (Journal of chromatography. A, 2015).
Where two headings read alike, the source gives them in different places.

Columns and labels:
Pgp = conditions: in vitro models; cited from earlier work
P-glycoprotein (Pgp) = conditions: not told; cited from earlier work
CYP3A4 = conditions: cited from earlier work
[1] = human, in vivo
[2] = subject 8 dosed with O-DVX, with indinavir therapy, 1 hr and 4 hrs
[3] = human, in vivo; remark: listed apart in the source

For `CC(C)(C)NC(=O)[C@@H]1CN(Cc2cccnc2)CCN1C[C@@H](O)C[C@@H](Cc1ccccc1)C(=O)N[C@H]1c2ccccc2C[C@H]1O` [indinavir], the “inhibition of Pgp” value (Pgp) is given as “potent inhibitor”.
For `COc1ccc(C(CN(C)C)C2(O)CCCCC2)cc1` (centres unmarked) [VX, venlafaxine], the “substrate of the drug transporter P-glycoprotein (Pgp)” value (P-glycoprotein (Pgp)) is listed as “substrates”.
For `CC(=O)N1CCN(c2ccc(OCC3COC(Cn4ccnc4)(c4ccc(Cl)cc4Cl)O3)cc2)CC1` (centres unmarked) [ketoconazole], the “reduction of N-desmethyl VX formation” value (CYP3A4) is listed as 42%.
For `CN(C)CC(c1ccc(O)cc1)C1(O)CCCCC1` (centres unmarked) [O-DVX, O-desmethylvenlafaxine], the “peak height ratio S- to R-enantiomer in plasma” value [1] is listed as 0.50-15.2, the “substrate of the drug transporter P-glycoprotein (Pgp)” value (P-glycoprotein (Pgp)) is listed as “substrates” and the “S/R ratio of peak height in plasma” value [2] is listed as “remains less than one”. For the same compound, the “S/R ratio of peak height in plasma” value ([3]; 1 h) was 0.83 and the “S/R ratio of peak height in plasma” value ([3]; 4 h) was 0.98.
